Patent publication US12509445B2, “Herbicidally active 4-cyclopropyl-6-[4-(trifluormethyl)pyrazol-1-yl)]pyrimidines” (Bayer Aktiengesellschaft, priority 2019, dated 2025)

Experiments:
Type in all cases: in vivo
[1] = system: Pharbitis purpurea (PHBPU); assay: Post-emergence herbicidal action; conditions: 320 g/ha, visual rating after about 3 weeks vs untreated controls, 100% = plants have died
Description: (§1) Seeds of monocotyledonous and dicotyledonous weeds and crop plants are placed in sandy loam in plastic or organic plant pots, covered with soil and cultivated in a greenhouse under controlled growth conditions. 2 to 3 weeks after sowing, the test plants are treated at the one-leaf stage. The compounds of the invention, formulated in the form of wettable powders (WP) or as emulsion concentrates (EC), are then sprayed onto the green parts of the plants as aqueous suspension or emulsion with addition of 0.5% additive at a water application rate of 600 l/ha (converted). After the test plants have been kept in the greenhouse under optimum growth conditions for about 3 weeks, the activity of the preparations is rated visually in comparison to untreated controls. For example, 100% activity=the plants have died, 0% activity=like control plants.
(§2) The abbreviations used here have the following meanings: • ABUTH Abutilon theophrasti • AMARE Amaranlhus retroflexus • CYPES Cyperus serotinus • ECHCGEchinocloa crus galli • LOLRI Lolium rigidum Gaudin • PHBPU Pharbitis purpurcum • SETVI Setaria viridis • VERPE Veronica persica • ALOMY Alopccurus myosuroides • AVEFA Avena fatua • DIGSA Digitaria sanguinalis • LOLMU Lolium multiflorum • MATIN Matricaria inodora • POLCO Polygonum convolvulus • STEME Stellaria media • VIOTR Viola tricolor

Veronica persica (VERPE) [2] = assay: Post-emergence herbicidal action; conditions: 320 g/ha, visual rating after about 3 weeks vs untreated controls, 100% = plants have died
Description: as §1, §2

[3] = system: Amaranthus retroflexus (AMARE); assay: Post-emergence herbicidal action; conditions: 320 g/ha, visual rating after about 3 weeks vs untreated controls, 100% = plants have died
Description: as §1, §2

Viola tricolor (VIOTR) [4] = assay: Post-emergence herbicidal action; conditions: 320 g/ha, visual rating after about 3 weeks vs untreated controls, 100% = plants have died
Description: as §1, §2

[5] = system: Abutilon theophrasti (ABUTH); assay: Pre-emergence herbicidal action; conditions: 320 g/ha, visual scoring after about 3 weeks vs untreated controls, 100% = plants have died
Text: as §2
(§3) Seeds of monocotyledonous and dicotyledonous weed plants and crop plants are placed in plastic or organic plant pots and covered with soil. The compounds of the invention, formulated in the form of wettable powders (WP) or as emulsion concentrates (EC), are then applied onto the surface of the covering soil as aqueous suspension or emulsion with addition of 0.5% additive at a water application rate of 600 l/ha (converted). After the treatment, the pots are placed in a greenhouse and kept under good growth conditions for the trial plants. After about 3 weeks, the effect of the preparations is scored visually in comparison with untreated controls as percentages. For example, 100% activity=the plants have died, 0% activity=like control plants.

[6] = system: Pharbitis purpurea (PHBPU); assay: Pre-emergence herbicidal action; conditions: 320 g/ha, visual scoring after about 3 weeks vs untreated controls, 100% = plants have died
Text: as §2, §3

Avena fatua (AVEFA) [7] = assay: Pre-emergence herbicidal action; conditions: 320 g/ha, visual scoring after about 3 weeks vs untreated controls, 100% = plants have died
Text: as §2, §3

[8] = system: Lolium multiflorum (LOLMU); assay: Pre-emergence herbicidal action; conditions: 320 g/ha, visual scoring after about 3 weeks vs untreated controls, 100% = plants have died
Text: as §2, §3

Veronica persica (VERPE) [9] = assay: Pre-emergence herbicidal action; conditions: 320 g/ha, visual scoring after about 3 weeks vs untreated controls, 100% = plants have died
Text: as §2, §3

[10] = system: Amaranthus retroflexus (AMARE); assay: Pre-emergence herbicidal action; conditions: 320 g/ha, visual scoring after about 3 weeks vs untreated controls, 100% = plants have died
Text: as §2, §3

[11] = system: Echinochloa crus-galli (ECHCG); assay: Pre-emergence herbicidal action
Text: as §2, §3
(§4) The compounds according to the invention were tested by the post-emergence and pre-emergence methods under the conditions described above for comparative purposes with the structurally closest compounds known from WO 2005/089551 A1 (D1).

[12] = system: Matricaria inodora (MATIN); assay: Pre-emergence herbicidal action
Text: as §2, §3, §4

[13] = system: Polygonum convolvulus (POLCO); assay: Pre-emergence herbicidal action
Text: as §2, §3, §4

Setaria viridis (SETVI) [14] = assay: Pre-emergence herbicidal action
Text: as §2, §3, §4

[15] = system: Alopecurus myosuroides (ALOMY); assay: Pre-emergence herbicidal action
Text: as §2, §3, §4

Stellaria media (STEME) [16] = assay: Pre-emergence herbicidal action
Text: as §2, §3, §4

Viola tricolor (VIOTR) [17] = assay: Pre-emergence herbicidal action
Text: as §2, §3, §4

[18] = system: Abutilon theophrasti (ABUTH); assay: Post-emergence herbicidal action
Description: as §1, §2, §4

[19] = system: Echinochloa crus-galli (ECHCG); assay: Post-emergence herbicidal action
Description: as §1, §2, §4

[20] = system: Matricaria inodora (MATIN); assay: Post-emergence herbicidal action
Description: as §1, §2, §4

Avena fatua (AVEFA) [21] = assay: Post-emergence herbicidal action
Description: as §1, §2, §4

[22] = system: Polygonum convolvulus (POLCO); assay: Post-emergence herbicidal action
Description: as §1, §2, §4

Setaria viridis (SETVI) [23] = assay: Post-emergence herbicidal action
Description: as §1, §2, §4

[24] = system: Lolium multiflorum (LOLMU); assay: Post-emergence herbicidal action
Description: as §1, §2, §4

[25] = system: Alopecurus myosuroides (ALOMY); assay: Post-emergence herbicidal action
Description: as §1, §2, §4

Stellaria media (STEME) [26] = assay: Post-emergence herbicidal action
Description: as §1, §2, §4

[27] = system: harmful plants such as Abutilon theophrasti, Alopecurus myosuroides, Amaranthus retroflexus, Avena fatua, Echinochloa crus-galli, Matricaria inodora, Pharbitis …; assay: Post-emergence herbicidal action, summary in text; conditions: post-emergence treatment
Description: as §1
In this case, for example, in the post-emergence process, the compounds No. 1-001 and 111-001 have very good herbicidal activity (80% to 100% herbicidal action) against harmful plants such as Abutilon theophrasti, Alopecurus myosuroides, Amaranthus retroflexus, Avena fatua, Echinochloa crus-galli, Matricaria inodora, Pharbitis purpurea, Setaria viridis, Stellaria media, Veronica persica and Viola tricolor at an application rate of 0.32 kg of active substance or less per hectare. At the same time, some compounds according to the invention leave graminaceous crops such as barley, wheat, rye, millet/sorghum, maize, rice or sugarcane virtually undamaged when applied by the post-emergence method, even at high active compound dosages. Some substances are additionally also benign to dicotyledonous crops such as soya, cotton, oilseed rape or sugarbeet.

[28] = system: harmful plants such as Alopecurus myosuroides, Amaranthus retroflexus, Avena fatua, Echinochloa crus-galli, Matricaria inodora, Pharbitis purpurea, Polygonum …; assay: Pre-emergence herbicidal action, summary in text; conditions: pre-emergence treatment
Text: as §3
At the same time, some compounds according to the invention leave graminaceous crops such as barley, wheat, rye, millet/sorghum, maize, rice or sugarcane virtually undamaged when applied by the pre-emergence method, even at high active compound dosages. Some compounds are additionally also benign to dicotyledonous crops such as soya, cotton, oilseed rape or sugarbeet.

[29] = 80 g of a.i./ha, comparative test
[30] = 320 g/ha, visual scoring after about 3 weeks vs untreated controls, 100% = plants have died
[31] = 320 g/ha, visual rating after about 3 weeks vs untreated controls, 100% = plants have died

SMILES: Cn1nc(C(F)(F)F)cc1Oc1nc(C2CC2)cc(-n2cc(C(F)(F)F)cn2)n1 [III-001]
- Post-emergence action PHBPU [1]: 100%
- Post-emergence action VERPE (Veronica persica (VERPE) [2]): 100%
- Post-emergence action AMARE [3]: 100%
- Post-emergence action VIOTR (Viola tricolor (VIOTR) [4]): 100%
- Pre-emergence action ABUTH [5]: 90%
- Pre-emergence action PHBPU [6]: 100%
- Pre-emergence action AVEFA (Avena fatua (AVEFA) [7]): 90%
- Pre-emergence action LOLMU [8]: 90%
- Pre-emergence action VERPE (Veronica persica (VERPE) [9]): 100%
- Pre-emergence action AMARE [10]: 90%
- Herbicidal action against ECHCG [11, 29]: 100%
- Pre-emergence action ECHCG [11, 30]: 100%
- Herbicidal action against MATIN [12, 29]: 100%
- Pre-emergence action MATIN [12, 30]: 100%
- Herbicidal action against POLCO [13, 29]: 90%
- Pre-emergence action POLCO [13, 30]: 90%
- Herbicidal action against SETVI (Setaria viridis (SETVI) [14]; [29]): 100%
- Pre-emergence action SETVI (Setaria viridis (SETVI) [14]; [30]): 100%
- Herbicidal action against ALOMY [15, 29]: 100%
- Pre-emergence action ALOMY [15, 30]: 100%
- Herbicidal action against STEME (Stellaria media (STEME) [16]; [29]): 90%
- Pre-emergence action STEME (Stellaria media (STEME) [16]; [30]): 100%
- Herbicidal action against VIOTR (Viola tricolor (VIOTR) [17]; [29]): 100%
- Pre-emergence action VIOTR (Viola tricolor (VIOTR) [17]; [30]): 100%
- Herbicidal action against ABUTH [18, 29]: 90%
- Post-emergence action ABUTH [18, 31]: 90%
- Herbicidal action against ECHCG [19, 29]: 80%
- Post-emergence action ECHCG [19, 31]: 90%
- Herbicidal action against MATIN [20, 29]: 80%
- Post-emergence action MATIN [20, 31]: 90%
- Herbicidal action against AVEFA (Avena fatua (AVEFA) [21]; [29]): 80%
- Post-emergence action AVEFA (Avena fatua (AVEFA) [21]; [31]): 90%
- Herbicidal action against POLCO [22, 29]: 90%
- Post-emergence action POLCO [22, 31]: 90%
- Herbicidal action against SETVI (Setaria viridis (SETVI) [23]; [29]): 90%
- Post-emergence action SETVI (Setaria viridis (SETVI) [23]; [31]): 100%
- Herbicidal action against LOLMU [24, 29]: 70%
- Post-emergence action LOLMU [24, 31]: 90%
- Herbicidal action against ALOMY [25, 29]: 70%
- Post-emergence action ALOMY [25, 31]: 90%
- Herbicidal action against STEME (Stellaria media (STEME) [26]; [29]): 90%
- Post-emergence action STEME (Stellaria media (STEME) [26]; [31]): 100%
- herbicidal action against harmful plants (in words) [27]: good herbicidal action
- herbicidal action against harmful plants (in words) [28]: good herbicidal action
